# According to patent publication US20070167526A1, “Topical mecamylamine formulations for ocular administration and uses thereof” (priority 2005, published 2007):
# Like-named read-outs stand apart in the source and are kept apart here.
# What was measured:
# [1] = Toxicokinetics in the 14-day dog study (Example 13); format: in vivo; details: for Cmax: both sexes, beagle, dog, in vivo, topical or ocular
# Protocol: An ophthalmic saline solution formulation containing 3% mecamylamine hydrochloride (HCl) was evaluated for toxicological effects and drug pharmacokinetics in healthy beagle dogs. The drug solution or a matching vehicle control was administered 2, 4 and […] for 14 or 15 consecutive days to both eyes of Beagle dogs.
# Animals were dosed 2, 4 or 6 times a day for 14 consecutive days for males or 15 consecutive days for females. The dose (50 microliters) was administered to the globe of the eye on each dosing occasion. Mortality and clinical observations were evaluated twice daily. Ocular observations were evaluated according to the Draize scoring system twice daily (Draize et al., (1944) J. Pharm. Exp. Ther. 82: 377-390, incorporated by reference herein). All eyes from all animals had ophthalmology examinations using an indirect ophthalmoscope and slit lamp and were evaluated according to McDonald and Shadduck (McDonald & Shadduck (1977) Advances in Modern Toxicology 4: 162 (New York, Wiley), hereby incorporated by reference herein) prior to treatment initiation and 1-2 hours following the final dosing of Groups 1 and 4 on Days 7 and 14. Approximate pupil size was determined for each animal prior to study initiation, at least 30 minutes following the final daily dose on Days 1 and 8 and prior to terminal sacrifice on Days 15/16. Electroretinograms (ERG) were obtained from all animals prior to treatment initiation and on Day 14. Blood samples for evaluation of hematology, coagulation and clinical chemistry parameters were collected prior to treatment initiation and prior to terminal sacrifice on Days 15/16. Selected tissues were harvested at necropsy, selected organs weighed, and selected tissues from all animals were evaluated microscopically.
# [2] = Ocular bioavailability following intravenous administration (Example 2); format: in vivo, New Zealand White rabbit; details: rabbit; 15 mg/kg i.v.; FIG. 3
# Description: This study was designed to model the ocular bioavailability of mecamylamine when administered systemically. Rabbit eyes are the preferred model for in vivo modeling of ocular drugs, however, the rabbit is not the subject of choice for modeling oral bioavailability. However, systemic administration does emulate orally administered mecamylamine to a reasonable approximation since mecamylamine has rapid absorption and high oral bioavailability. Therefore, intravenous injection was used to model ocular bioavailability of mecamylamine administered systemically, in order to determine the deposition of mecamylamine to the plasma, vitreous and posterior tissues (retina/choroid) of the eye from the blood.
# The study comprised 2 groups (each N=6, 12 rabbits total) of male NZW (New Zealand White) rabbits weighing approximately 2.5-3 kg and obtained from Kralek Farms (Turlock, Calif.). Mecamylamine solution, prepared as described in Example 1, at a dose of 15 mg/kg was delivered via i.v. infusion as either a short infusion (1 hr) or slow infusion (6 hr) in rabbits sedated by ketamine/xylazine, with the slow infusion intended to model controlled systemic release of the mecamylamine.
# For both groups, samples of the vitreous(≧0.1 ml) and plasma were withdrawn at 6 time points: pre-dose, 30 min, 1, 2, 4, and 6 hr. At 6 hours, all animals were sacrificed and vitreous and retinal tissues were collected. The total amount of mecamylamine administered during each infusion was the same, based on the weight of the individual rabbit.
# The concentrations of mecamylamine present in the various samples were analyzed as described in Example 6, below.
# [3] = 6-hour ocular pharmacokinetics of 2% Mecamylamine GELRITE solution following topical instillation (Example 10); format: in vivo, New Zealand White rabbit; details: rabbit; for concentration at 1 h / concentration at 3 h / concentration at 6 h: female, New Zealand White, topical; for Mecamylamine concentration in blood Cell Fraction, Mean / Mecamylamine concentration in blood Plasma, Mean: Pre
# Protocol: The time of each dose administration was recorded. There was no mortality in the treatment group.
# [4] = cited from earlier work
structure (smiles),measurement,setting,value
"CNC1(C)C2CCC(C2)C1(C)C (stereo not drawn) [mecamylamine, N-2,3,3-tetramethylbicyclo(2.2.1)heptan-2-amine]",accumulation ratios,"[1]; Beagle dog, Day 13 versus Day 1, any group",≤ 1.14
same,Cmax,"[1]; 3 mg/eye/day, Group 2 (2 doses/eye/day, 3 mg/eye/day), read-out: Cmax, mean",49 ng/mL
same,Cmax,"[1]; 3 mg/eye/day, Group 2, read-out: Cmax, highest overall value",185 ng/mL
same,Cmax,"[1]; 6 mg/eye/day, Group 3 (4 doses/eye/day, 6 mg/eye/day), read-out: Cmax, mean",44 ng/mL
same,Cmax,"[1]; 9 mg/eye/day, Group 4 (6 doses/eye/day, 9 mg/eye/day), read-out: Cmax, mean",64 ng/mL
same,"amount of mecamylamine reaching the retina/choroid, long infusion versus short infusion",[2],more than 2 fold
same,concentration at 1 h,"[3]; aqueous humor, 2% in GELRITE, 2 × 50 μL, OS (unilateral) treated eye, 1 hr, read-out: Mecamylamine concentration in Aqueous humor, Mean",2510 ng/g
same,concentration at 1 h,"[3]; aqueous humor, 2% in GELRITE, 2 × 50 μL, OU (bilateral), 1 hr, read-out: Mecamylamine concentration in Aqueous humor, Mean",3910 ng/g
same,concentration at 3 h,"[3]; aqueous humor, 2% in GELRITE, 2 × 50 μL, OU (bilateral), 3 hr, read-out: Mecamylamine concentration in Aqueous humor, Mean",500 ng/g
same,concentration at 6 h,"[3]; aqueous humor, 2% in GELRITE, 2 × 50 μL, OU (bilateral), 6 hr, read-out: Mecamylamine concentration in Aqueous humor, Mean",48.9 ng/g
same,concentration at 1 h,"[3]; aqueous humor, fellow (vehicle) eye of unilaterally dosed animals, 1 hr, read-out: Mecamylamine concentration in Aqueous humor, Mean",9.7 ng/g
same,concentration at 1 h,"[3]; blood cell fraction, group MEC OS 1 hr, Post, read-out: Mecamylamine concentration in blood Cell Fraction, Mean",15 ng/mL
same,concentration at 1 h,"[3]; blood cell fraction, group MEC OU 1 hr, Post, read-out: Mecamylamine concentration in blood Cell Fraction, Mean",33.1 ng/mL
same,concentration at 3 h,"[3]; blood cell fraction, group MEC OU 3 hr, Post, read-out: Mecamylamine concentration in blood Cell Fraction, Mean",7 ng/mL
same,concentration at 6 h,"[3]; blood cell fraction, group MEC OU 6 hr, Post, read-out: Mecamylamine concentration in blood Cell Fraction, Mean",1.2 ng/mL
same,concentration at 1 h,"[3]; choroid (treated eye), 2% in GELRITE, 2 × 50 μL, OS (unilateral) treated eye, 1 hr, read-out: Mecamylamine concentration in Choroid, Mean",~2800 ng/g
same,concentration at 1 h,"[3]; choroid of the fellow (vehicle) eye, fellow (vehicle) eye of unilaterally dosed animals, 1 hr, read-out: Mecamylamine concentration in Choroid, Mean",~700 ng/g
same,concentration at 1 h,"[3]; choroid, 2% in GELRITE, 2 × 50 μL, OU (bilateral), 1 hr, read-out: Mecamylamine concentration in Choroid, Mean",~14000 ng/g
same,concentration at 6 h,"[3]; choroid, 2% in GELRITE, 2 × 50 μL, OU (bilateral), 6 hr, read-out: Mecamylamine concentration in Choroid, Mean",~260 ng/g
same,concentration at 1 h,"[3]; cornea, 2% in GELRITE, 2 × 50 μL, OS (unilateral) treated eye, 1 hr, read-out: Mecamylamine concentration in Cornea, Mean",9600 ng/g
same,concentration at 1 h,"[3]; cornea, 2% in GELRITE, 2 × 50 μL, OU (bilateral), 1 hr, read-out: Mecamylamine concentration in Cornea, Mean",17900 ng/g
same,concentration at 3 h,"[3]; cornea, 2% in GELRITE, 2 × 50 μL, OU (bilateral), 3 hr, read-out: Mecamylamine concentration in Cornea, Mean",3820 ng/g
same,concentration at 6 h,"[3]; cornea, 2% in GELRITE, 2 × 50 μL, OU (bilateral), 6 hr, read-out: Mecamylamine concentration in Cornea, Mean",1230 ng/g
same,concentration at 1 h,"[3]; cornea, fellow (vehicle) eye of unilaterally dosed animals, 1 hr, read-out: Mecamylamine concentration in Cornea, Mean",652 ng/g
same,concentration at 1 h,"[3]; plasma, group MEC OS 1 hr, Post, read-out: Mecamylamine concentration in blood Plasma, Mean",16.3 ng/mL
same,concentration at 1 h,"[3]; plasma, group MEC OU 1 hr, Post, read-out: Mecamylamine concentration in blood Plasma, Mean",37.8 ng/mL
same,concentration at 3 h,"[3]; plasma, group MEC OU 3 hr, Post, read-out: Mecamylamine concentration in blood Plasma, Mean",8.3 ng/mL
same,concentration at 6 h,"[3]; plasma, group MEC OU 6 hr, Post, read-out: Mecamylamine concentration in blood Plasma, Mean",0.3 ng/mL
same,concentration at 1 h,"[3]; retina, 2% in GELRITE, 2 × 50 μL, OS (unilateral) treated eye, 1 hr, read-out: Mecamylamine concentration in Retina, Mean",4160 ng/g
same,concentration at 1 h,"[3]; retina, 2% in GELRITE, 2 × 50 μL, OU (bilateral), 1 hr, read-out: Mecamylamine concentration in Retina, Mean",14700 ng/g
same,concentration at 3 h,"[3]; retina, 2% in GELRITE, 2 × 50 μL, OU (bilateral), 3 hr, read-out: Mecamylamine concentration in Retina, Mean",563 ng/g
same,concentration at 6 h,"[3]; retina, 2% in GELRITE, 2 × 50 μL, OU (bilateral), 6 hr, read-out: Mecamylamine concentration in Retina, Mean",310 ng/g
same,concentration at 1 h,"[3]; retina, fellow (vehicle) eye of unilaterally dosed animals, 1 hr, read-out: Mecamylamine concentration in Retina, Mean",781 ng/g
same,concentration at 1 h,"[3]; vitreous humor, 2% in GELRITE, 2 × 50 μL, OS (unilateral) treated eye, 1 hr, read-out: Mecamylamine concentration in Vitreous humor, Mean",37.8 ng/g
same,concentration at 1 h,"[3]; vitreous humor, 2% in GELRITE, 2 × 50 μL, OU (bilateral), 1 hr, read-out: Mecamylamine concentration in Vitreous humor, Mean",131 ng/g
same,concentration at 3 h,"[3]; vitreous humor, 2% in GELRITE, 2 × 50 μL, OU (bilateral), 3 hr, read-out: Mecamylamine concentration in Vitreous humor, Mean",17.7 ng/g
same,concentration at 6 h,"[3]; vitreous humor, 2% in GELRITE, 2 × 50 μL, OU (bilateral), 6 hr, read-out: Mecamylamine concentration in Vitreous humor, Mean",5.9 ng/g
same,concentration at 1 h,"[3]; vitreous humor, fellow (vehicle) eye of unilaterally dosed animals, 1 hr, read-out: Mecamylamine concentration in Vitreous humor, Mean",10.4 ng/g
same,"Mecamylamine concentration in Choroid, Mean","[3]; 2% in GELRITE, 2 × 50 μL, OS (unilateral) treated eye, 1 hr, listed as MEC",2806.7 ng/g
same,"Mecamylamine concentration in Choroid, Mean","[3]; 2% in GELRITE, 2 × 50 μL, OU (bilateral), 1 hr, listed as MEC",14170.0 ng/g
same,"Mecamylamine concentration in Choroid, Mean","[3]; 2% in GELRITE, 2 × 50 μL, OU (bilateral), 3 hr",~500 ng/g
same,"Mecamylamine concentration in Choroid, Mean","[3]; 2% in GELRITE, 2 × 50 μL, OU (bilateral), 3 hr, listed as MEC",1086.0 ng/g
same,"Mecamylamine concentration in Choroid, Mean","[3]; 2% in GELRITE, 2 × 50 μL, OU (bilateral), 6 hr, listed as MEC",264.5 ng/g
same,Mean levels in the plasma and packed cells,"[3]; 2% in GELRITE, highest one hour after bilateral dosing",5 to 38 ng/mL
same,"Mecamylamine concentration in Choroid, Mean","[3]; fellow (vehicle) eye of unilaterally dosed animals, 1 hr, listed as MEC",705.7 ng/g
same,"Mecamylamine concentration in blood Cell Fraction, Mean",[3]; group MEC OS 1 hr,0.0 ng/mL
same,"Mecamylamine concentration in blood Plasma, Mean",[3]; group MEC OS 1 hr,0.0 ng/mL
same,"Mecamylamine concentration in blood Cell Fraction, Mean",[3]; group MEC OU 1 hr,0.0 ng/mL
same,"Mecamylamine concentration in blood Plasma, Mean",[3]; group MEC OU 1 hr,0.0 ng/mL
same,"Mecamylamine concentration in blood Cell Fraction, Mean",[3]; group MEC OU 3 hr,0.0 ng/mL
same,"Mecamylamine concentration in blood Plasma, Mean",[3]; group MEC OU 3 hr,0.0 ng/mL
same,"Mecamylamine concentration in blood Cell Fraction, Mean",[3]; group MEC OU 6 hr,0.0 ng/mL
same,"Mecamylamine concentration in blood Plasma, Mean",[3]; group MEC OU 6 hr,0.0 ng/mL
same,pka,[4],~11.2
